Consider 58 molecules from ChEMBL document CHEMBL4138237, “Activation of anti-oxidant Nrf2 signaling by enone analogues of curcumin” (Eur J Med Chem, 2018).

Calls of active or inactive are those of the source.

Data set [1] has as its target Luciferin 4-monooxygenase (Photinus pyralis, UniProt P08659). Kind of data set: Effect on firefly luciferase activity expressed in human HepG2 cells at low concentration after 5 hrs by luminescence assay. To be noted: hepg2, 5 h. The class given is ADME, cell-based.
For data set [2], the target named is T1, Nuclear factor erythroid 2-related factor 2 (Homo sapiens) (UniProt Q16236).
T1 sequence (whole entry): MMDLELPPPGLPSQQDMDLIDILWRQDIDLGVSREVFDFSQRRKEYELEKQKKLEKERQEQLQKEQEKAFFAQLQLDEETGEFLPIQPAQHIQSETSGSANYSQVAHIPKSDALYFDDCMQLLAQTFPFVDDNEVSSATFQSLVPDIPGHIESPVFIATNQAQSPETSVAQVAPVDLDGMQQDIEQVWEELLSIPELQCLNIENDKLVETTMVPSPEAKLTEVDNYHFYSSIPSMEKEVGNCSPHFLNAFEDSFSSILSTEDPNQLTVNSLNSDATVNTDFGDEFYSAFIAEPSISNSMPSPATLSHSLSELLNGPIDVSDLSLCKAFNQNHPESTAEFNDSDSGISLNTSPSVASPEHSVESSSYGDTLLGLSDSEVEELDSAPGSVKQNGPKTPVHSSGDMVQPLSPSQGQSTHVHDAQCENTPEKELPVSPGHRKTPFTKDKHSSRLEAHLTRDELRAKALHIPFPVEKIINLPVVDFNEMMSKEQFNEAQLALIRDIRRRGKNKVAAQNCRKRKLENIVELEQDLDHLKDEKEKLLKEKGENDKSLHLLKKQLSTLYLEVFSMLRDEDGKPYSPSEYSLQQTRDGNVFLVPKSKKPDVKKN
Kind of data set: Activation of Nrf2 (unknown origin) expressed in human HepG2 cells at 15 uM after 5 hrs by ARE-driven luciferase reporter gene assay relative to control. The class given is cell-based.

Luciferin 4-monooxygenase, sequence (P08659 whole entry): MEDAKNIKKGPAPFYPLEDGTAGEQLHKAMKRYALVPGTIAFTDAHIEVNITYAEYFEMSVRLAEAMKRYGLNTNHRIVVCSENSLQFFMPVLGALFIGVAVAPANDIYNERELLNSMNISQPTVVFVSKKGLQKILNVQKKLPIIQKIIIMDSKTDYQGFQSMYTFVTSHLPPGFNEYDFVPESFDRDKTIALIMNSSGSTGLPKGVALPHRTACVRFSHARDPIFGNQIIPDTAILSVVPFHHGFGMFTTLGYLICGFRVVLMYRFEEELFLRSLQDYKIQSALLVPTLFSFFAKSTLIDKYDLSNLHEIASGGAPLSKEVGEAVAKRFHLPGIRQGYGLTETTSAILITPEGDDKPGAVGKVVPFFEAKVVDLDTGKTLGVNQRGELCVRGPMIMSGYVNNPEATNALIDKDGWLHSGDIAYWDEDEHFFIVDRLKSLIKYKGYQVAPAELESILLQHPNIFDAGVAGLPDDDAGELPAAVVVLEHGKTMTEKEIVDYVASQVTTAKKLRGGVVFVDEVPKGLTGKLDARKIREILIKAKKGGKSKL

`O=C(/C=C/c1ccccc1)/C=C/c1ccccc1`: the Activity result in data set [1] is listed as “Non-Toxic”. Besides, the result in data set [2] was Active.

Turning to `O=C(/C=C/c1ccc(Cl)cc1)CC(=O)/C=C/c1ccc(Cl)cc1`, in data set [1], the Activity result is given as “Non-Toxic”. For the same molecule, the outcome in data set [2] was inactive.

In the case of `COc1ccc(/C=C/C(C)=O)cc1`, the Activity result in data set [1] is given as “Non-Toxic”. Same read-out and setting: to `COc1ccc(/C=C/C(=O)/C=C/c2ccc(OC)cc2OC)c(OC)c1` belongs “Non-Toxic”; to `COc1ccc(/C=C/C(=O)/C=C/c2ccccc2)cc1`, “Non-Toxic”.

With `COc1ccccc1/C=C1\CCC/C(=C\c2ccccc2OC)C1=O`, in data set [1], the Activity result is recorded as “Non-Toxic”. Besides, the outcome in data set [2] was inactive. `CCc1c(/C=C/C(=O)/C=C/c2ccc(OC)c(OC)c2CC)ccc(OC)c1OC`: in data set [1], the Activity entry is listed as “Non-Toxic”. Also, in data set [2], the result was Active. As to `O=C(/C=C/c1ccc(Br)cc1)CC(=O)/C=C/c1ccc(Br)cc1`, the Activity result in data set [1] is “Non-Toxic”. In addition, the result in data set [2] was inactive. With `CN1C/C(=C\c2cccc(Br)c2)C(=O)/C(=C/c2cccc(Br)c2)C1`, in data set [1], the Activity result is reported as “Non-Toxic”. Further, the outcome in data set [2] was Active. Consider `O=C(CCc1ccccc1)CCc1ccccc1`, for which the Activity result in data set [1] is given as “Non-Toxic”. The result in data set [2] was inactive.

As to `COc1ccc(/C=C/C(=O)CC(=O)/C=C/c2ccc(OC)cc2OC)c(OC)c1`, the Activity entry in data set [1] was “Non-Toxic”. Besides, in data set [2], the outcome was Active. For `O=C(/C=C/c1ccccc1O)/C=C/c1ccccc1O`, the Activity result in data set [1] is recorded as “Non-Toxic”. The molecule further registered a fold change (FC) in data set [2] of 18.5. On to `COc1cc(/C=C2\CCC/C(=C\c3cc(OC)cc(OC)c3)C2=O)cc(OC)c1`, for which, in data set [1], the Activity entry was “Non-Toxic”. Further, the fold change (FC) in data set [2] was 22.1. `COc1cc(OC)c(OC)cc1/C=C/C(=O)/C=C/c1cc(OC)c(OC)cc1OC`: the Activity entry in data set [1] was “Non-Toxic”. The molecule also showed a fold change (FC) in data set [2] of 18.2. In the case of `COc1cc(/C=C2\CN(C)C/C(=C\c3cc(OC)c(OC)c(OC)c3)C2=O)cc(OC)c1OC`, the Activity entry in data set [1] is “Non-Toxic”. The outcome in data set [2] was inactive.

In the case of `CSc1ccc(/C=C2\CN(C)C/C(=C\c3ccc(SC)cc3)C2=O)cc1`, the Activity result in data set [1] is listed as “Non-Toxic”. `COc1ccc(/C=C/C(=O)/C=C/c2ccc(OC)c(O)c2)cc1O`: the Activity entry in data set [1] is recorded as “Non-Toxic”.

For `O=C(/C=C/c1ccc(Br)cc1)/C=C/c1ccc(Br)cc1`, the Activity result in data set [1] was “Non-Toxic”. For the same molecule, the outcome in data set [2] was inactive. Take `COc1cc(/C=C/C(=O)/C=C/c2ccccc2)ccc1O`: in data set [1], the Activity entry is “Non-Toxic”. The same measure, in the same setting: to `O=C1/C(=C/c2ccc(Br)cc2)CCC/C1=C\c1ccc(Br)cc1` belongs “Non-Toxic”; to `O=C(/C=C(\O)c1ccccc1)c1ccccc1`, “Non-Toxic”. As for `O=C(/C=C/c1ccccc1)/C(Cc1ccccc1)=C(O)/C=C/c1ccccc1`, the Activity result in data set [1] was “Non-Toxic”. Turning to `COc1ccc(/C=C2\CN(C)C/C(=C\c3ccc(OC)cc3OC)C2=O)c(OC)c1`, the Activity entry in data set [1] was “Non-Toxic”. `COc1ccc(/C=C2\CCC/C(=C\c3ccc(OC)cc3)C2=O)cc1`: the Activity result in data set [1] is “Non-Toxic”. Besides, the outcome in data set [2] was inactive. As for `COc1cc(/C=C/C(=O)CC(=O)/C=C/c2ccc(O)c(OC)c2)ccc1O` [CURCUMIN], the Activity result in data set [1] is recorded as “Non-Toxic”. In data set [2], this molecule returned a fold change (FC) of 22.6. For `COc1ccc(/C=C2\CCC/C(=C\c3ccc(OC)c(OC)c3OC)C2=O)c(OC)c1OC`, the Activity result in data set [1] is on record as “Non-Toxic”.

As for `O=C(/C=C/c1cccc([N+](=O)[O-])c1)CC(=O)/C=C/c1cccc([N+](=O)[O-])c1`, the Activity result in data set [1] is recorded as “Non-Toxic”. For the same molecule, the outcome in data set [2] was inactive. In the case of `N#Cc1ccc(C(=O)/C=C/c2ccccc2)cc1`, in data set [1], the Activity entry is reported as “Non-Toxic”. `COc1cccc(/C=C/C(=O)CC(=O)/C=C/c2cccc(OC)c2OC)c1OC`: the Activity entry in data set [1] is “Non-Toxic”. Turning to `O=C1/C(=C/c2cccc(O)c2)CCC/C1=C\c1cccc(O)c1`, the Activity result in data set [1] is “Non-Toxic”. For the molecule `COc1cccc(/C=C/C(=O)/C=C/c2cccc(OC)c2OC)c1OC`, the Activity result in data set [1] is “Non-Toxic”. Regarding `COc1ccccc1/C=C/C(=O)CC(=O)/C=C/c1ccccc1OC`, in data set [1], the Activity entry was “Non-Toxic”. Regarding `O=C(/C=C/c1cccc(O)c1)/C=C/c1cccc(O)c1`, the Activity entry in data set [1] was “Non-Toxic”. With `C/C(C(=O)/C=C/c1ccccc1)=C(O)\C=C\c1ccccc1`, the Activity entry in data set [1] is “Non-Toxic”.

Turning to `COc1ccc(OC)c(/C=C2\CCC/C(=C\c3cc(OC)ccc3OC)C2=O)c1`, the Activity result in data set [1] is on record as “Non-Toxic”. `COc1ccccc1/C=C/C(=O)/C=C/c1ccccc1OC`: the Activity entry in data set [1] is given as “Non-Toxic”. Turning to `COc1cccc(/C=C2\CN(C)C/C(=C\c3cccc(OC)c3)C2=O)c1`, the Activity entry in data set [1] is “Non-Toxic”. Still for that read-out and setting: to `COc1cccc(/C=C2\CN(C)C/C(=C\c3cccc(OC)c3OC)C2=O)c1OC` belongs “Non-Toxic”; to `O=C(O)c1ccc(C(=O)/C=C/c2ccccc2)cc1`, “Non-Toxic”. For the molecule `COc1cc(/C=C2\CN(C)C/C(=C\c3cc(OC)cc(OC)c3)C2=O)cc(OC)c1`, the Activity result in data set [1] is “Non-Toxic”. With `COc1cc(/C=C/C(=O)/C=C/c2ccc(OC(C)=O)c(OC)c2)ccc1OC(C)=O`, in data set [1], the Activity result is given as “Non-Toxic”. Turning to `COc1cccc(/C=C2\CCC/C(=C\c3cccc(OC)c3OC)C2=O)c1OC`, the Activity entry in data set [1] was “Non-Toxic”. Take `COc1ccc(/C=C2\CN(C)C/C(=C\c3ccc(OC)cc3)C2=O)cc1`: the Activity result in data set [1] is given as “Non-Toxic”. Same read-out and setting: to `COc1ccc(/C=C2\CCC/C(=C\c3ccc(OC)c(OC)c3)C2=O)cc1OC` belongs “Non-Toxic”. Turning to `COc1cc(/C=C/C(=O)/C=C/c2cc(OC)cc(OC)c2)cc(OC)c1`, the Activity entry in data set [1] is “Non-Toxic”.

`COc1ccc(/C=C2\CN(C)C/C(=C\c3ccc(OC)c(OC)c3OC)C2=O)c(OC)c1OC`: the Activity result in data set [1] is recorded as “Non-Toxic”. Same read-out and setting: to `CCOc1ccc(/C=C2\CN(C)C/C(=C\c3ccc(OCC)cc3)C2=O)cc1` belongs “Non-Toxic”. As for `COc1cc(/C=C2\CCC/C(=C\c3cc(OC)c(OC)c(OC)c3)C2=O)cc(OC)c1OC`, in data set [1], the Activity entry is “Non-Toxic”. Still for that read-out and setting: to `CC(=O)Oc1ccc(/C=C/C(=O)/C=C/c2ccc(OC(C)=O)cc2)cc1` belongs “Non-Toxic”.

As to `O=C1/C(=C/c2cccc(F)c2)CCC/C1=C\c1cccc(F)c1`, the Activity entry in data set [1] is reported as “Non-Toxic”.

On to `CC(C(=O)CCc1ccccc1)C(=O)CCc1ccccc1`, for which, in data set [1], the Activity entry is “Non-Toxic”. Still for that read-out and setting: to `COc1cc(/C=C2\CCC/C(=C\c3ccc(O)c(OC)c3)C2=O)ccc1O` [CYCLOVALONE] belongs “Non-Toxic”; to `COc1ccc(/C=C/C(=O)/C=C/c2ccc(OC)c(OC)c2)cc1OC`, “Non-Toxic”; to `CC(=O)/C=C/c1ccccc1O`, “Non-Toxic”.

As to `COc1ccc(/C=C/C(=O)CC(=O)/C=C/c2ccc(OC)c(OC)c2)cc1OC` [TETRAMETHOXYCURCUMIN], the Activity entry in data set [1] is on record as “Non-Toxic”. As for `O=C(CCc1ccccc1)C(Cc1ccccc1)C(=O)CCc1ccccc1`, the Activity entry in data set [1] is listed as “Non-Toxic”.

Consider `COc1cccc(OC)c1/C=C/C(=O)/C=C/c1c(OC)cccc1OC`, for which the Activity entry in data set [1] was “Non-Toxic”.

Take `COc1cc(CCC(=O)C(Cc2ccccc2)C(=O)CCc2ccc(O)c(OC)c2)ccc1O`: in data set [1], the Activity result is listed as “Non-Toxic”.
